According to patent US12281149B2, “Modulators of G-protein coupled receptors” (priority 2021, dated 2025):
pEC50: −log10 of the molar value. Read-outs that look alike come from different tables or passages of the source. *1 amine or outer side, *2 acyl side, *3 side chain or, on linkers, in order; H or OH if unused. Where a SMILES comes first, the peptide text is derived from it. Side-chain parts run from the residue outwards. [ ]: non-standard residue; d: D form. The star is where a group is joined. Isobutyryl(2-(3-CN-5-F-Ph)) = CC(C)(C(=O)*)c1cc(F)cc(C#N)c1; C20 diacid = O=C(O)CCCCCCCCCCCCCCCCCCC(=O)*; β2hAla(2S) = C[C@@H](CN[*:1])C(=O)[*:2]; γGlu = O=C(O)[C@H](CCC(=O)[*:2])N[*:1]; X18 = O=C(C1(c2cccc(F)c2)CCCC1)*; αMeF = C[C@](N)(Cc1ccccc1)C(=O)O; NH(4-Me-phenyl) = Cc1ccc(N*)cc1; X44 = COc1ccc(C(C)(C)C(=O)*)cc1; X82 = CC(C)(C(=O)*)n1cc(N)cn1; AEEA = NCCOCCOCC(=O)O; Aib = CC(C)(N)C(=O)O; CO = O=C([*:1])[*:2]; βAla = NCCC(=O)O

Tests used:
Type in all cases: cell-based
GLP-1 receptor [1] = target: T1, GLP-1 receptor (Homo sapiens, UniProt P43220); assay: HitHunter cAMP assay, GLP-1 receptor; conditions: for Emax: read-out: Emax GLP-1R
Method: CAMP accumulation was measured in Chinese hamster ovary (CHO) cells stably expressing the human GLP-1 receptor or GIP receptor using the HitHunter CAMP Assay for Small Molecules Kit (Eurofins). Briefly, cells were grown in Ham's F12 Nutrient Mix with 10% FBS and lifted with Cell dissociation buffer, Enzyme free, PBS based (ThermoFisher). Cells were pelleted and resuspended in Hank's buffered saline solution with 10 mM Hepes and 625 μM 3-isobutyl-1-methylxanthine. The antibody reagent was then added to cells at a 1:2 ratio and 5 μL of mixture was seeded in 384-well small volume white assay plates, at 10,000 cells/well. Cells were then treated with 50 nl compound in DMSO using an ECHO 550 acoustic dispenser (Labcyte) in a 20-point dose response format in triplicate for 30 min. Cells were the lysed and detection reagents added according to the manufacturer's protocol. After overnight incubation, luminescence was measured using a Perkin Elmer Envision plate reader. Raw data was normalized to the maximum signal from GLP-1 or GIP (high) and DMSO (low). Dose response curves were analyzed using GraphPad Prism 9.0.

GIP receptor [2] = target: T2, GIP receptor (Homo sapiens, UniProt P48546); assay: HitHunter cAMP assay, GIP receptor; conditions: for Emax: read-out: Emax GIP-1R
T2 sequence (P48546 22-466): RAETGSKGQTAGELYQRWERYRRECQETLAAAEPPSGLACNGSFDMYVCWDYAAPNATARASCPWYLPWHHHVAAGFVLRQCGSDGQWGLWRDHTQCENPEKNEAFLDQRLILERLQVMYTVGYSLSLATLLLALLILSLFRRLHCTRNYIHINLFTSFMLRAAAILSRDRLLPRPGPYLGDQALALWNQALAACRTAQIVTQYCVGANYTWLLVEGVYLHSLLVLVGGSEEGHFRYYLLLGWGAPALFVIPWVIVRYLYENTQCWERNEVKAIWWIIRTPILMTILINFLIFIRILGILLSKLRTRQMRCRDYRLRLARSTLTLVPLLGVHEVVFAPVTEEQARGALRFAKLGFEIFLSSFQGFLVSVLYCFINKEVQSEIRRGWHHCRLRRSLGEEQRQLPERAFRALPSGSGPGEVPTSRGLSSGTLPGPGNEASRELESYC

GIP receptor [3] = target: T2, GIP receptor; assay: PathHunter β-arrestin assay, GIP receptor; design: host or cells: PathHunter CHO-K1 GIPR β-Arrestin Cell Line
GLP-1 receptor [4] = target: T1, GLP-1 receptor; assay: PathHunter β-arrestin assay, GLP-1 receptor; design: host or cells: PathHunter CHO-K1 GLP1R β-Arrestin Cell Line
Method: β-arrestin-2 recruitment for GLP-1 receptor or GIP receptor was measured using the DiscoverX PathHunter Detection Kit and PathHunter® CHO-K1 GLPIR β-Arrestin Cell Line or PathHunter® CHO-K1 GIPR β-Arrestin Cell Line, respectively). Briefly, cells were grown in Ham's F12 Nutrient Mix with 10% FBS and lifted with Cell dissociation buffer, Enzyme free, PBS based (ThermoFisher). Harvested cells were pelleted and resuspended in Assay Complete Cell Plating Reagent 2 and 5000 cells per well were plated in tissue culture treated 384-well small volume white assay plates. Plates were then incubated at 37° C. and 5% CO2 overnight. The media was then replaced with fresh Assay Complete Cell Plating Reagent 2. Cells were then treated with 10 nl compound in DMSO using an ECHO 550 acoustic dispenser (Labcyte) in a 20-point dose response format in duplicate for 90 min at 37° C. The assay was then completed according to the manufacturer's instructions. Luminescence was measured using a Perkin Elmer Envision plate reader. Raw data was normalized to the maximum signal from GLP-1 or GIP (high) and DMSO (low). Dose response curves were analyzed using GraphPad Prism 9.0.

[5] = CHO cells stably expressing human GLP-1 receptor, cAMP accumulation, 30 min, read-out: EC50 GLP-1R
[6] = CHO cells, cAMP, normalized to maximum signal from GLP-1 (high) and DMSO (low)
[7] = CHO cells stably expressing GIP receptor, cAMP accumulation, 30 min, read-out: EC50 GIP-1R
[8] = CHO cells, cAMP, normalized to maximum signal from GIP (high) and DMSO (low)
[9] = β-arrestin-2 recruitment, PathHunter CHO-K1 GIPR β-Arrestin Cell Line, 90 min at 37° C., normalized to GIP, read-out: GIPR β Arrestin EC50
[10] = β-arrestin-2 recruitment, PathHunter CHO-K1 GLP1R β-Arrestin Cell Line, 90 min at 37° C., normalized to GLP-1, read-out: GLP-1R β Arrestin EC50

T1 sequence (P43220 24-463): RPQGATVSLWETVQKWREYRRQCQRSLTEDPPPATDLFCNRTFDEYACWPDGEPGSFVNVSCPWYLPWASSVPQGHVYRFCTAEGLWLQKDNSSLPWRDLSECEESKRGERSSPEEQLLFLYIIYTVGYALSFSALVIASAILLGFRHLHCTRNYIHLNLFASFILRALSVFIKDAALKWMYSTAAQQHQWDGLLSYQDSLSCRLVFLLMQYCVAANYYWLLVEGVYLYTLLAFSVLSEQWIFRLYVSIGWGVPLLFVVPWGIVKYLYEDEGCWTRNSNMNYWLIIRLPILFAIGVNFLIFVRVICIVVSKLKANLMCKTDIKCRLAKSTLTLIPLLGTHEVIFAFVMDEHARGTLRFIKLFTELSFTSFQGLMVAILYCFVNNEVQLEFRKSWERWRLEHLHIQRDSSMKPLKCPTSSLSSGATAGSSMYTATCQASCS

SMILES | pEC50 (GLP-1 receptor [1]; [5]) | Emax (GLP-1 receptor [1]; [6]) [%] | pEC50 (GIP receptor [2]; [7]) | Emax (GIP receptor [2]; [8]) [%] | pEC50 (GIP receptor [3]; [9]) | pEC50 (GLP-1 receptor [4]; [10]) | pEC50 (GLP-1 receptor [1]) | Emax (GLP-1 receptor [1]; CHO) [%] | pEC50 (GIP receptor [2]) | Emax (GIP receptor [2]; CHO) [%] | pEC50 (GIP receptor [3]) | pEC50 (GLP-1 receptor [4])
CC[C@H](C)[C@H](NC(=O)[C@H](CC(C)C)NC(=O)[C@H](Cc1c[nH]c2ccccc12)NC(=O)[C@H](CCC(N)=O)NC(=O)[C@@H](NC(=O)[C@H](Cc1ccccc1)NC(=O)[C@H](C)NC(=O)[C@H](CCCCNC(=O)COCCOCCNC(=O)COCCOCCNC(=O)CC[C@H](NC(=O)CCCCCCCCCCCCCCCCCCC(=O)O)C(=O)O)NC(=O)[C@H](CCC(N)=O)NC(=O)[C@H](C)NC(=O)[C@@H](NC(=O)[C@H](CCCCN)NC(=O)[C@H](CC(=O)O)NC(=O)[C@H](CC(C)C)NC(=O)C(C)(C)NC(=O)[C@@H](NC(=O)[C@H](CO)NC(=O)[C@H](Cc1ccc(O)cc1)NC(=O)[C@H](CC(=O)O)NC(=O)[C@H](CO)NC(=O)[C@@H](NC(=O)[C@H](Cc1ccccc1)NC(=O)[C@@H](NC(=O)CNC(=O)[C@H](CCC(=O)O)NC(=O)CCNC(=O)C(C)(C)n1cc(N)cn1)[C@@H](C)O)[C@@H](C)O)[C@@H](C)CC)[C@@H](C)CC)C(C)C)C(=O)N[C@@H](C)C(=O)NCC(=O)NCC(=O)N1CCC[C@H]1C(=O)N[C@@H](CO)C(=O)N[C@@H](CO)C(=O)NCC(=O)N[C@@H](C)C(=O)N1CCC[C@H]1C(=O)N1CCC[C@H]1C(=O)N1CCC[C@H]1C(=O)N[C@@H](CO)C(N)=O [Compound 157] ({X82-βAla}-EGTFTSDYSI[Aib]LDKIAQK([AEEA-AEEA-γGlu-C20 diacid])AFVQWLIAGGPSSGAPPPS-NH2) | 9.00 to 10.00 | 100 | 7.00 to 8.00 | 106 | < 6.00 | < 6.00 |  |  |  |  |  | 
CC[C@H](C)[C@H](NC(=O)[C@H](CC(C)C)NC(=O)[C@H](Cc1c[nH]c2ccccc12)NC(=O)[C@H](CCC(N)=O)NC(=O)[C@@H](NC(=O)[C@H](Cc1ccccc1)NC(=O)[C@H](C)NC(=O)[C@H](CCCCNC(=O)COCCOCCNC(=O)COCCOCCNC(=O)CC[C@H](NC(=O)CCCCCCCCCCCCCCCCCCC(=O)O)C(=O)O)NC(=O)[C@H](CCC(N)=O)NC(=O)[C@H](C)NC(=O)[C@@H](NC(=O)[C@H](CCCCN)NC(=O)[C@H](CC(=O)O)NC(=O)[C@H](CC(C)C)NC(=O)C(C)(C)NC(=O)[C@@H](NC(=O)[C@H](CO)NC(=O)[C@H](Cc1ccc(O)cc1)NC(=O)[C@H](CC(=O)O)NC(=O)[C@H](CO)NC(=O)[C@@H](NC(=O)[C@H](Cc1ccccc1)NC(=O)[C@@H](NC(=O)CNC(=O)[C@H](CCC(=O)O)NC(=O)CCNC(=O)C(C)(C)c1ccc(OC)cc1)[C@@H](C)O)[C@@H](C)O)[C@@H](C)CC)[C@@H](C)CC)C(C)C)C(=O)N[C@@H](C)C(=O)NCC(=O)NCC(=O)N1CCC[C@H]1C(=O)N[C@@H](CO)C(=O)N[C@@H](CO)C(=O)NCC(=O)N[C@@H](C)C(=O)N1CCC[C@H]1C(=O)N1CCC[C@H]1C(=O)N1CCC[C@H]1C(=O)N[C@@H](CO)C(N)=O [Compound 203] ({X44-βAla}-EGTFTSDYSI[Aib]LDKIAQK([AEEA-AEEA-γGlu-C20 diacid])AFVQWLIAGGPSSGAPPPS-NH2) | 9.00 to 10.00 | 103 | 8.00 to 9.00 | 103 | > 6.00 | < 6.00 |  |  |  |  |  | 
CC[C@H](C)[C@H](NC(=O)[C@H](CC(C)C)NC(=O)[C@H](Cc1c[nH]c2ccccc12)NC(=O)[C@H](CCC(N)=O)NC(=O)[C@@H](NC(=O)[C@H](Cc1ccccc1)NC(=O)[C@H](C)NC(=O)[C@H](CCCCNC(=O)COCCOCCNC(=O)COCCOCCNC(=O)CC[C@H](NC(=O)CCCCCCCCCCCCCCCCCCC(=O)O)C(=O)O)NC(=O)[C@H](CCC(N)=O)NC(=O)[C@H](C)NC(=O)[C@@H](NC(=O)[C@H](CCCCN)NC(=O)[C@H](CC(=O)O)NC(=O)[C@H](CC(C)C)NC(=O)C(C)(C)NC(=O)[C@@H](NC(=O)[C@H](CO)NC(=O)[C@H](Cc1ccc(O)cc1)NC(=O)[C@H](CC(=O)O)NC(=O)[C@H](CO)NC(=O)[C@@H](NC(=O)[C@H](Cc1ccccc1)NC(=O)[C@@H](NC(=O)CNC(=O)[C@H](CCC(=O)O)NC(=O)CCNC(=O)[C@H](C)NC(=O)Nc1ccc(C)cc1)[C@@H](C)O)[C@@H](C)O)[C@@H](C)CC)[C@@H](C)CC)C(C)C)C(=O)N[C@@H](C)C(=O)NCC(=O)NCC(=O)N1CCC[C@H]1C(=O)N[C@@H](CO)C(=O)N[C@@H](CO)C(=O)NCC(=O)N[C@@H](C)C(=O)N1CCC[C@H]1C(=O)N1CCC[C@H]1C(=O)N1CCC[C@H]1C(=O)N[C@@H](CO)C(N)=O [Compound 272] ({NH(4-Me-phenyl)-CO}-A[βAla]EGTFTSDYSI[Aib]LDKIAQK([AEEA-AEEA-γGlu-C20 diacid])AFVQWLIAGGPSSGAPPPS-NH2) |  |  |  |  |  |  | 7.00 to 8.00 | 75 | 7.00 to 8.00 | 91 | < 6.00 | < 6.00
CC[C@H](C)[C@H](NC(=O)[C@H](CC(C)C)NC(=O)[C@H](Cc1c[nH]c2ccccc12)NC(=O)[C@H](CCC(N)=O)NC(=O)[C@@H](NC(=O)[C@H](Cc1ccccc1)NC(=O)[C@H](C)NC(=O)[C@H](CCCCNC(=O)COCCOCCNC(=O)COCCOCCNC(=O)CC[C@H](NC(=O)CCCCCCCCCCCCCCCCCCC(=O)O)C(=O)O)NC(=O)[C@H](CCC(N)=O)NC(=O)[C@H](C)NC(=O)[C@@H](NC(=O)[C@H](CCCCN)NC(=O)[C@H](CC(=O)O)NC(=O)[C@H](CC(C)C)NC(=O)C(C)(C)NC(=O)[C@@H](NC(=O)[C@H](CO)NC(=O)[C@H](Cc1ccc(O)cc1)NC(=O)[C@H](CC(=O)O)NC(=O)[C@H](CO)NC(=O)[C@@H](NC(=O)[C@](C)(Cc1ccccc1)NC(=O)[C@@H](NC(=O)CNC(=O)[C@H](CCC(=O)O)NC(=O)CCNC(=O)C(C)(C)c1cc(F)cc(C#N)c1)[C@@H](C)O)[C@@H](C)O)[C@@H](C)CC)[C@@H](C)CC)C(C)C)C(=O)N[C@@H](C)C(=O)NCC(=O)NCC(=O)N1CCC[C@H]1C(=O)N[C@@H](CO)C(=O)N[C@@H](CO)C(=O)NCC(=O)N[C@@H](C)C(=O)N1CCC[C@H]1C(=O)N1CCC[C@H]1C(=O)N1CCC[C@H]1C(=O)N[C@@H](CO)C(N)=O [Compound 235] ({Isobutyryl(2-(3-CN-5-F-Ph))-βAla}-EGT[αMeF]TSDYSI[Aib]LDKIAQK([AEEA-AEEA-γGlu-C20 diacid])AFVQWLIAGGPSSGAPPPS-NH2) | 9.00 to 10.00 | 122 | 9.00 to 10.00 | 108 | > 6.00 | < 6.00 |  |  |  |  |  | 
CC[C@H](C)[C@H](NC(=O)[C@H](CC(C)C)NC(=O)[C@H](Cc1c[nH]c2ccccc12)NC(=O)[C@H](CCC(N)=O)NC(=O)[C@@H](NC(=O)[C@H](Cc1ccccc1)NC(=O)[C@H](C)NC(=O)[C@H](CCCCNC(=O)COCCOCCNC(=O)COCCOCCNC(=O)CC[C@H](NC(=O)CCCCCCCCCCCCCCCCCCC(=O)O)C(=O)O)NC(=O)[C@H](CCC(N)=O)NC(=O)[C@H](C)NC(=O)[C@@H](NC(=O)[C@H](CCCCN)NC(=O)[C@H](CC(=O)O)NC(=O)[C@H](CC(C)C)NC(=O)C(C)(C)NC(=O)[C@@H](NC(=O)[C@H](CO)NC(=O)[C@H](Cc1ccc(O)cc1)NC(=O)[C@H](CC(=O)O)NC(=O)[C@H](CO)NC(=O)[C@@H](NC(=O)[C@H](Cc1ccccc1)NC(=O)[C@@H](NC(=O)CNC(=O)[C@H](CCC(=O)O)NC(=O)[C@@H](C)CNC(=O)C1(c2cccc(F)c2)CCCC1)[C@@H](C)O)[C@@H](C)O)[C@@H](C)CC)[C@@H](C)CC)C(C)C)C(=O)N[C@@H](C)C(=O)NCC(=O)NCC(=O)N1CCC[C@H]1C(=O)N[C@@H](CO)C(=O)N[C@@H](CO)C(=O)NCC(=O)N[C@@H](C)C(=O)N1CCC[C@H]1C(=O)N1CCC[C@H]1C(=O)N1CCC[C@H]1C(=O)N[C@@H](CO)C(N)=O [Compound 180] (X18-[β2hAla(2S)]EGTFTSDYSI[Aib]LDKIAQK([AEEA-AEEA-γGlu-C20 diacid])AFVQWLIAGGPSSGAPPPS-NH2) | 9.00 to 10.00 | 101 | 9.00 to 10.00 | 105 | > 6.00 | < 6.00 |  |  |  |  |  | 
